Experimental data from paper doi:10.1101/2022.10.27.513961v1 (bioRxiv, 2022).
Where a SMILES comes first, the peptide text is derived from it. Bridges are numbered along the chain shown (N, C = ends).

How the values were obtained:
Assay type in all cases: cell-based
[1] = system: WM164 cells; experiment: Cytotoxicity, resazurin assay
[2] = system: HT144 cells; experiment: Cytotoxicity, resazurin assay; conditions: for IC50: Homo sapiens
[3] = system: WM164 cells; experiment: Co-treatment of dabrafenib with peptide, resazurin assay; conditions: drug-naïve WM164, drug (50 nM) or peptide (at IC50) added alone, 72 h
[4] = system: WM164 cells; experiment: Lipidome analysis, shotgun tandem MS of lipid extracts
[5] = system: HT144 cells; experiment: as above
[6] = system: WM164 cells; experiment: Cell surface charge, zeta potential; conditions: WM164 PDRCs (105 days with dabrafenib), mean ± SEM, n=3
[7] = system: HT144 cells; experiment: Cell surface charge, zeta potential; conditions: mean ± SEM, n=3
[8] = system: WM164 cells; experiment: Microscopy during long-term treatment
[9] = system: HT144 cells; experiment: Microscopy during long-term treatment
[10] = system: WM164 cells; experiment: Real-time cell analysis, xCELLigence impedance
[11] = system: HT144 cells; experiment: Real-time cell analysis, xCELLigence impedance
[12] = WM164, 15-30 days of dabrafenib
[13] = WM164, dabrafenib 30 days vs untreated
[14] = HT144, dabrafenib 30 days vs untreated

CC(C)(C)c1nc(-c2cccc(NS(=O)(=O)c3c(F)cccc3F)c2F)c(-c2ccnc(N)n2)s1 [dabrafenib, reference compound]
IC50 ([1]; Homo sapiens, WM164, Parental WM164 cells): 44 nM | IC50 ([2]; HT-144, 72 h, HT144 PDRC (100 nM), resazurin three days after drug): > 1000 nM | IC50 ([2]; HT-144, Parental HT144 cells): 22 nM | toxicity ([2]; PDR HT144 cells, at 1µM): ~10% | cell death [3]: ~ 50% | SM proportion ([4]; WM164, 100 nM dabrafenib 30 days (untreated 3)): 11 mol% | fold increase of PI 38:4 [4, 12]: 3 fold | fold increase of SM 36:1 [4, 12]: 3 fold | SM 36:1 abundance ([4]; WM164, 15-30 days of dabrafenib (before 8)): 26 mol% | PI 38:4 abundance ([4]; WM164, 15-30 days of dabrafenib (before 18)): 55 mol% | negatively charged lipids (PS+PI) proportion ([4]; WM164, dabrafenib 30 days (untreated 19)): 23 mol% | zwitterionic PE and PC proportion ([4]; WM164, dabrafenib 30 days (untreated 78)): 66 mol% | fold decrease in PE and PC [4, 13]: 0.8 fold | fold increase in PS+PI [4, 13]: 1.2 fold | fold increase in SM [4, 13]: 3.7 fold | SM proportion ([5]; HT144, dabrafenib 30 days (untreated 5)): 9 mol% | PE proportion ([5]; HT144, dabrafenib 30 days (untreated 15)): 20 mol% | PC proportion ([5]; HT144, dabrafenib 30 days (untreated 59)): 51 mol% | fold decrease in PC [5, 14]: 0.9 fold | fold increase in PE [5, 14]: 1.3 fold | fold increase in SM [5, 14]: 1.8 fold | surface charge, zeta potential [6]: −20.18 ± 0.95 mV | surface charge, zeta potential ([7]; HT144 DTPs (30 days with dabrafenib)): −15.94 ± 0.59 mV | surface charge, zeta potential ([7]; HT144 PDRCs (105 days with dabrafenib)): −17.7 ± 0.30 mV | time to death of drug-naïve cells ([8]; WM164, 100 nM dabrafenib): ≤ 48 h | time to death of drug-naïve cells ([9]; HT144, 100 nM dabrafenib): ≤ 48 h

CC[C@H](C)[C@@H]1NC(=O)CNC(=O)[C@H](CCCNC(=N)N)NC(=O)[C@H](Cc2ccc(O)cc2)NC(=O)[C@@H]2CSSC[C@H](NC1=O)C(=O)N[C@@H](Cc1ccc(O)cc1)C(=O)N[C@@H](CCCNC(=N)N)C(=O)N[C@@H](CCCNC(=N)N)C(=O)N[C@H]1CSSC[C@H](NC(=O)[C@H](Cc3c[nH]c4ccccc34)NC(=O)[C@H](CCCCN)NC(=O)CNC(=O)[C@H](CCCNC(=N)N)NC1=O)C(=O)N[C@@H](Cc1ccccc1)C(=O)N[C@@H](CCCNC(=N)N)C(=O)N[C@@H](C(C)C)C(=O)N2 [cTI, cyclic tachyplesin I] (cyclo(CFRVCYRGICYRRCRGKW); disulfide 1-14, 5-10)
cell death ([1]; 5 x10^3 WM164 cells seeded for 24 h, 3 µM peptide, resazurin): 50% | development of resistance ([1]; WM164, cTI 0.5 to 3 µM over 100 days): did not develop resistance | development of resistance ([2]; HT144, cTI 0.5 to 3 µM over 100 days): did not develop resistance | reduction in impedance signal ([10]; 5 µM, 24 h): ~50% | time to drop in the impedance to ∼0 ([10]; 10 µM): 2 to 3 h | cell proliferation ([10]; 10^4 WM164 cells seeded for 24 h, 5 µM): ~50% | reduction in impedance signal ([11]; 5 µM, 24 h): ~50% | time to drop in the impedance to ∼0 ([11]; 10 µM): 2 to 3 h | cell death [3]: ~ 50% | PC 30:0, Mean nmol/M cells ([4]; WM164, 1µM cTI_15d): 0.78 nmol/M cells | PC 30:1, Mean nmol/M cells ([4]; WM164, 1µM cTI_15d): 0.42 nmol/M cells | PC 32:0, Mean nmol/M cells ([4]; WM164, 1µM cTI_15d): 0.50 nmol/M cells | PC 32:1, Mean nmol/M cells ([4]; WM164, 1µM cTI_15d): 3.15 nmol/M cells | PC 32:2, Mean nmol/M cells ([4]; WM164, 1µM cTI_15d): 0.38 nmol/M cells | PC 34:1, Mean nmol/M cells ([4]; WM164, 1µM cTI_15d): 5.61 nmol/M cells | PC 34:2, Mean nmol/M cells ([4]; WM164, 1µM cTI_15d): 2.35 nmol/M cells | PC 36:1, Mean nmol/M cells ([4]; WM164, 1µM cTI_15d): 0.86 nmol/M cells | PC 36:2, Mean nmol/M cells ([4]; WM164, 1µM cTI_15d): 3.56 nmol/M cells | PE 32:1, Mean nmol/M cells ([4]; WM164, 1µM cTI_15d): 0.21 nmol/M cells | PE 34:1, Mean nmol/M cells ([4]; WM164, 1µM cTI_15d): 0.89 nmol/M cells | PE 34:2, Mean nmol/M cells ([4]; WM164, 1µM cTI_15d): 0.71 nmol/M cells | PE 36:1, Mean nmol/M cells ([4]; WM164, 1µM cTI_15d): 0.75 nmol/M cells | PE 36:2, Mean nmol/M cells ([4]; WM164, 1µM cTI_15d): 1.48 nmol/M cells | PE 36:3, Mean nmol/M cells ([4]; WM164, 1µM cTI_15d): 0.19 nmol/M cells | PE 38:4, Mean nmol/M cells ([4]; WM164, 1µM cTI_15d): 0.27 nmol/M cells | PE 38:5, Mean nmol/M cells ([4]; WM164, 1µM cTI_15d): 0.26 nmol/M cells | PE 40:6, Mean nmol/M cells ([4]; WM164, 1µM cTI_15d): 0.16 nmol/M cells | PI 34:1, Mean nmol/M cells ([4]; WM164, 1µM cTI_15d): 0.42 nmol/M cells | PI 34:2, Mean nmol/M cells ([4]; WM164, 1µM cTI_15d): 0.29 nmol/M cells | PI 36:1, Mean nmol/M cells ([4]; WM164, 1µM cTI_15d): 1.12 nmol/M cells | PI 36:2, Mean nmol/M cells ([4]; WM164, 1µM cTI_15d): 1.12 nmol/M cells | PI 38:2, Mean nmol/M cells ([4]; WM164, 1µM cTI_15d): 0.19 nmol/M cells | PI 38:3, Mean nmol/M cells ([4]; WM164, 1µM cTI_15d): 0.34 nmol/M cells | PI 38:4, Mean nmol/M cells ([4]; WM164, 1µM cTI_15d): 0.64 nmol/M cells | PI 38:5, Mean nmol/M cells ([4]; WM164, 1µM cTI_15d): 0.22 nmol/M cells | PC 30:0, Mean nmol/M cells ([4]; WM164, 2µM cTI_60d): 0.51 nmol/M cells | PC 30:1, Mean nmol/M cells ([4]; WM164, 2µM cTI_60d): 0.27 nmol/M cells | PC 32:0, Mean nmol/M cells ([4]; WM164, 2µM cTI_60d): 0.34 nmol/M cells | PC 32:1, Mean nmol/M cells ([4]; WM164, 2µM cTI_60d): 1.93 nmol/M cells | PC 32:2, Mean nmol/M cells ([4]; WM164, 2µM cTI_60d): 0.26 nmol/M cells | PC 34:1, Mean nmol/M cells ([4]; WM164, 2µM cTI_60d): 4.19 nmol/M cells | PC 34:2, Mean nmol/M cells ([4]; WM164, 2µM cTI_60d): 1.64 nmol/M cells | PC 36:1, Mean nmol/M cells ([4]; WM164, 2µM cTI_60d): 0.82 nmol/M cells | PC 36:2, Mean nmol/M cells ([4]; WM164, 2µM cTI_60d): 2.77 nmol/M cells | PE 32:1, Mean nmol/M cells ([4]; WM164, 2µM cTI_60d): 0.16 nmol/M cells | PE 34:1, Mean nmol/M cells ([4]; WM164, 2µM cTI_60d): 0.68 nmol/M cells | PE 34:2, Mean nmol/M cells ([4]; WM164, 2µM cTI_60d): 0.71 nmol/M cells | PE 36:1, Mean nmol/M cells ([4]; WM164, 2µM cTI_60d): 0.78 nmol/M cells | PE 36:2, Mean nmol/M cells ([4]; WM164, 2µM cTI_60d): 1.83 nmol/M cells | PE 36:3, Mean nmol/M cells ([4]; WM164, 2µM cTI_60d): 0.19 nmol/M cells | PE 38:4, Mean nmol/M cells ([4]; WM164, 2µM cTI_60d): 0.28 nmol/M cells | PE 38:5, Mean nmol/M cells ([4]; WM164, 2µM cTI_60d): 0.27 nmol/M cells | PE 40:6, Mean nmol/M cells ([4]; WM164, 2µM cTI_60d): 0.17 nmol/M cells | PI 34:1, Mean nmol/M cells ([4]; WM164, 2µM cTI_60d): 0.25 nmol/M cells | PI 34:2, Mean nmol/M cells ([4]; WM164, 2µM cTI_60d): 0.17 nmol/M cells | PI 36:1, Mean nmol/M cells ([4]; WM164, 2µM cTI_60d): 0.80 nmol/M cells | PI 36:2, Mean nmol/M cells ([4]; WM164, 2µM cTI_60d): 0.73 nmol/M cells | PI 38:2, Mean nmol/M cells ([4]; WM164, 2µM cTI_60d): 0.18 nmol/M cells | PI 38:3, Mean nmol/M cells ([4]; WM164, 2µM cTI_60d): 0.26 nmol/M cells | PI 38:4, Mean nmol/M cells ([4]; WM164, 2µM cTI_60d): 0.46 nmol/M cells | PI 38:5, Mean nmol/M cells ([4]; WM164, 2µM cTI_60d): 0.12 nmol/M cells | PC 30:0, Mean nmol/M cells ([4]; WM164, 3µM cTI_100d): 0.74 nmol/M cells | PC 30:1, Mean nmol/M cells ([4]; WM164, 3µM cTI_100d): 0.44 nmol/M cells | PC 32:0, Mean nmol/M cells ([4]; WM164, 3µM cTI_100d): 0.42 nmol/M cells | PC 32:1, Mean nmol/M cells ([4]; WM164, 3µM cTI_100d): 3.17 nmol/M cells | PC 32:2, Mean nmol/M cells ([4]; WM164, 3µM cTI_100d): 0.42 nmol/M cells | PC 34:1, Mean nmol/M cells ([4]; WM164, 3µM cTI_100d): 5.27 nmol/M cells | PC 34:2, Mean nmol/M cells ([4]; WM164, 3µM cTI_100d): 2.18 nmol/M cells | PC 36:1, Mean nmol/M cells ([4]; WM164, 3µM cTI_100d): 0.90 nmol/M cells | PC 36:2, Mean nmol/M cells ([4]; WM164, 3µM cTI_100d): 2.89 nmol/M cells | PE 32:1, Mean nmol/M cells ([4]; WM164, 3µM cTI_100d): 0.26 nmol/M cells | PE 34:1, Mean nmol/M cells ([4]; WM164, 3µM cTI_100d): 1.09 nmol/M cells | PE 34:2, Mean nmol/M cells ([4]; WM164, 3µM cTI_100d): 1.08 nmol/M cells | PE 36:1, Mean nmol/M cells ([4]; WM164, 3µM cTI_100d): 1.00 nmol/M cells | PE 36:2, Mean nmol/M cells ([4]; WM164, 3µM cTI_100d): 2.05 nmol/M cells | PE 36:3, Mean nmol/M cells ([4]; WM164, 3µM cTI_100d): 0.26 nmol/M cells | PE 38:4, Mean nmol/M cells ([4]; WM164, 3µM cTI_100d): 0.33 nmol/M cells | PE 38:5, Mean nmol/M cells ([4]; WM164, 3µM cTI_100d): 0.35 nmol/M cells | PE 40:6, Mean nmol/M cells ([4]; WM164, 3µM cTI_100d): 0.19 nmol/M cells | PI 34:1, Mean nmol/M cells ([4]; WM164, 3µM cTI_100d): 0.48 nmol/M cells | PI 34:2, Mean nmol/M cells ([4]; WM164, 3µM cTI_100d): 0.30 nmol/M cells | PI 36:1, Mean nmol/M cells ([4]; WM164, 3µM cTI_100d): 1.26 nmol/M cells | PI 36:2, Mean nmol/M cells ([4]; WM164, 3µM cTI_100d): 1.19 nmol/M cells | PI 38:2, Mean nmol/M cells ([4]; WM164, 3µM cTI_100d): 0.23 nmol/M cells | PI 38:3, Mean nmol/M cells ([4]; WM164, 3µM cTI_100d): 0.35 nmol/M cells | PI 38:4, Mean nmol/M cells ([4]; WM164, 3µM cTI_100d): 0.61 nmol/M cells | PI 38:5, Mean nmol/M cells ([4]; WM164, 3µM cTI_100d): 0.22 nmol/M cells | cell morphology ([8]; WM164, after 2 µM cTI for one week): more elongated and less dendritic | cell morphology ([9]; HT144, treatment with cTI for 100 days): remained unchanged
